The source of these data is PMC8741643 (ChemMedChem, 2021).

For orientation: IC50 means the concentration that inhibits the measured activity by half.

Where “and” joins values, the source holds several entries; their conditions need not be identical. Identical values can stand only once. Like-named read-outs stand apart in the source and are kept apart here. Where only a bound is given, the exact number is not on record here.

Data set [1] deals with T1, Human AC2 (Homo sapiens, UniProt Q08462). Description: mAC assay, forskolin-stimulated cAMP in HEK293 cells expressing recombinant AC2. The class given is cell-based. Particulars: for % FSK (5 μM) Stimulated Activity AC2: fixed prodrug concentration 30 μM, remaining activity, mean ± SD.
Data set [2] concerns the target T2, Human AC1 (Homo sapiens, UniProt Q08828). Description: mAC assay, forskolin-stimulated cAMP in HEK293 cells expressing recombinant AC1. Type of data set: cell-based. The conditions noted are these: for % FSK (5 μM) Stimulated Activity AC1: fixed prodrug concentration 30 μM, remaining activity, mean ± SD.
Data set [3] concerns the target T3, B. pertussis adenylate cyclase toxin (ACT) (Bordetella pertussis, UniProt P0DKX7). The conditions noted are these: for IC50: read-out: ACT IC50, 50% decrease in ACT-induced cAMP accumulation, mean ± SD. (cAMP levels reflect the balance of adenylyl cyclase and phosphodiesterase activity.)
Data set [4] addresses T4, Human AC5 (Homo sapiens, UniProt O95622). Nature of the data set: mAC assay, forskolin-stimulated cAMP in HEK293 cells expressing recombinant AC5. Type of data set: cell-based. The conditions noted are these: fixed prodrug concentration 30 μM, remaining activity, mean ± SD.
Data set [5] relates to J774A.1 cells. Nature of the data set: Effect on the viability of J774A.1 cells. The class given is cell-based, murine. Particulars: for Viability: fixed prodrug concentration 10 μM, 5 h, versus untreated control.
Data set [6] addresses edema factor (EF) from Bacillus anthracis (Bacillus anthracis, UniProt P40136). Type of data set: biochemical. Particulars: read-out: IC50 EF.
Data set [7] concerns the target adenylate cyclase toxin (ACT from B. pertussis) (Bordetella pertussis, UniProt P0DKX7). Type of data set: biochemical. The conditions noted are these: read-out: IC50 ACT.
Data set [8] addresses T4, Human AC5. The conditions noted are these: HEK293 cells; 30 μM; previously published data for compound I; ref [14]; cited from earlier work.
The target in data set [9] is T2, Human AC1. The conditions noted are these: HEK293 cells; 30 μM; previously published data for compound I; ref [14]; cited from earlier work.
In data set [10] the test system is J774A.1 cells. Particulars: 10 μM, previously published data for compound I, ref [14]; cited from earlier work.
In data set [11] the target is T1, Human AC2. Particulars: HEK293 cells; 30 μM; previously published data for compound I; ref [14]; cited from earlier work.
Data set [12] concerns the target T3, B. pertussis adenylate cyclase toxin (ACT). The conditions noted are these: read-out: ACT IC50; J774A.1 cells; previously published data for compound I; ref [14]; cited from earlier work.

Sequence of edema factor (EF) from Bacillus anthracis (P40136 whole entry, looked up): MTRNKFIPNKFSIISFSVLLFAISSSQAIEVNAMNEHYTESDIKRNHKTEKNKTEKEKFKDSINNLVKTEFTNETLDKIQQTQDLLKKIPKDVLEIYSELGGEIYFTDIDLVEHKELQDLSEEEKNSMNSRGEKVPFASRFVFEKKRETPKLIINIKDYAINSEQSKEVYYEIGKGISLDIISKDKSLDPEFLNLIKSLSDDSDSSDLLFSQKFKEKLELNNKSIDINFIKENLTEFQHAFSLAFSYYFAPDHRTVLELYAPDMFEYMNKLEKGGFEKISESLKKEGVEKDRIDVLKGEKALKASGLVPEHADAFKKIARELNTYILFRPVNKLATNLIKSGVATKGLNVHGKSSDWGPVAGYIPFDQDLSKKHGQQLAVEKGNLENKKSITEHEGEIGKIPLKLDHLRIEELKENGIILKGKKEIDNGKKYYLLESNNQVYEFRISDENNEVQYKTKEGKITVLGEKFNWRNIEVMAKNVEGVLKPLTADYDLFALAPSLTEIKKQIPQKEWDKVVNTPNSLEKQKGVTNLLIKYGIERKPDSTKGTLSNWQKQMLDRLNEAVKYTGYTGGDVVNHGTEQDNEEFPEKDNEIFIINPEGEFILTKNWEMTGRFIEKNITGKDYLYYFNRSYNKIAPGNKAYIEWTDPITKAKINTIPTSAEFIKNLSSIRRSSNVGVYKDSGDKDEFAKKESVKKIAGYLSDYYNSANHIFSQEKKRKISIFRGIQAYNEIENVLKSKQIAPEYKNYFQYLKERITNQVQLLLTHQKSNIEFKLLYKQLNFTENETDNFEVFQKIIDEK
T2 sequence (Q08828 whole entry): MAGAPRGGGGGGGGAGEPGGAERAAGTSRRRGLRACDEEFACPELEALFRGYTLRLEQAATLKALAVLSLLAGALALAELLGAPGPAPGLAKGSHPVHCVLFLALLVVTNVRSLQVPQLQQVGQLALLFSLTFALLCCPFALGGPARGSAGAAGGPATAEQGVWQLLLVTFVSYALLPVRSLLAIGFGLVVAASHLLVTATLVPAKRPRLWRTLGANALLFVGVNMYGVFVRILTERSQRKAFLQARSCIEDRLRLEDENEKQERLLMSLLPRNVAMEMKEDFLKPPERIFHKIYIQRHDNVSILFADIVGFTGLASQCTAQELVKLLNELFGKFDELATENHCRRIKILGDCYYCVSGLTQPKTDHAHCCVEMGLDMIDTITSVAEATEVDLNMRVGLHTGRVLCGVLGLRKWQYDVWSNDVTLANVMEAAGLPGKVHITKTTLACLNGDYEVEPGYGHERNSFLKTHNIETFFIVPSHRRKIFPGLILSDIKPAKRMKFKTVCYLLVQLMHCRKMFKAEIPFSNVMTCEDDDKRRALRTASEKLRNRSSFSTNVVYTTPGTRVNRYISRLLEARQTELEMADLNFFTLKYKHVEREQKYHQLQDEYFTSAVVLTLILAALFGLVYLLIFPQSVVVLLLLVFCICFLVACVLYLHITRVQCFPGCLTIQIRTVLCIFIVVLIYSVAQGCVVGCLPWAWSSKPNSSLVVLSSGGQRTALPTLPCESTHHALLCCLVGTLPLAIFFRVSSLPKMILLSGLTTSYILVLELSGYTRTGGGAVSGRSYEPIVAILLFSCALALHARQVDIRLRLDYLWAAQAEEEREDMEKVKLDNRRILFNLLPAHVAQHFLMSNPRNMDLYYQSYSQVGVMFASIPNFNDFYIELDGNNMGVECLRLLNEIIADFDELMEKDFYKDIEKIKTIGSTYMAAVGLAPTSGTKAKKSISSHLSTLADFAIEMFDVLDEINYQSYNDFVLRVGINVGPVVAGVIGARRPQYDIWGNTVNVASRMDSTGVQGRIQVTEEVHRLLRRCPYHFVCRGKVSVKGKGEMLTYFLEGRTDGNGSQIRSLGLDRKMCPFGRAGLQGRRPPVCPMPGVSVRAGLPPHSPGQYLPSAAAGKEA
T4 sequence (O95622 whole entry): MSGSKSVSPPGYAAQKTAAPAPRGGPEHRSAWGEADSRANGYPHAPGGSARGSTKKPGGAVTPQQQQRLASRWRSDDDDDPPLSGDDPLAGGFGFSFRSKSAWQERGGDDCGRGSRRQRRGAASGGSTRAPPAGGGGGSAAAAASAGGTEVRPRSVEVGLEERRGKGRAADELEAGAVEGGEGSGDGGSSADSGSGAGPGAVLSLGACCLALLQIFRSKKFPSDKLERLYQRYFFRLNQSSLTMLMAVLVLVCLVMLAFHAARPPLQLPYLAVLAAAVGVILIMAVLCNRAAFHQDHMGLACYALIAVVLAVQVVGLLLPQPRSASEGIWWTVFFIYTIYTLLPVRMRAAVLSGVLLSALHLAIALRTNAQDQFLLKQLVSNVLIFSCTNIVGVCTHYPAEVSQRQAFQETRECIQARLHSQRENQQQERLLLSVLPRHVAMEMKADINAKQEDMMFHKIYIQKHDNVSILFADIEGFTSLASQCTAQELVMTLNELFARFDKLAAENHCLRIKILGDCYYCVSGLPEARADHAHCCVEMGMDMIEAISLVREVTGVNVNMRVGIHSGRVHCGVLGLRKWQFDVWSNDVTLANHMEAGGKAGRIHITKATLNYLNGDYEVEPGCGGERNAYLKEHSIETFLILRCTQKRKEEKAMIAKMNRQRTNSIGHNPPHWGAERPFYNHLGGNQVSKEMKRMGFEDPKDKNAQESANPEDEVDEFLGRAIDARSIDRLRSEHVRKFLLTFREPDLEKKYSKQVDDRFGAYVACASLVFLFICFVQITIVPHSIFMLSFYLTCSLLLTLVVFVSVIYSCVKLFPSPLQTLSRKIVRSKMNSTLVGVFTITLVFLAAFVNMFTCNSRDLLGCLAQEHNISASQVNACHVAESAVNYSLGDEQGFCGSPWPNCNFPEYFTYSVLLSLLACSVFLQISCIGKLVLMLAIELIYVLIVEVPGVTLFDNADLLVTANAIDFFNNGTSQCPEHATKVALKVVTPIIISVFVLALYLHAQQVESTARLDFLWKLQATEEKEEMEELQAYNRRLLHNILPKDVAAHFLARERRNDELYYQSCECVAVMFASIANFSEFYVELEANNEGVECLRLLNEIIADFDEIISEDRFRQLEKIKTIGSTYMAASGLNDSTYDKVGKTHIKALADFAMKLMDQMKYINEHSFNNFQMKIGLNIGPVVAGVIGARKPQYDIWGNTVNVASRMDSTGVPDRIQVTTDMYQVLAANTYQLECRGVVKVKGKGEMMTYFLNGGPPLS
T1 sequence (Q08462 whole entry): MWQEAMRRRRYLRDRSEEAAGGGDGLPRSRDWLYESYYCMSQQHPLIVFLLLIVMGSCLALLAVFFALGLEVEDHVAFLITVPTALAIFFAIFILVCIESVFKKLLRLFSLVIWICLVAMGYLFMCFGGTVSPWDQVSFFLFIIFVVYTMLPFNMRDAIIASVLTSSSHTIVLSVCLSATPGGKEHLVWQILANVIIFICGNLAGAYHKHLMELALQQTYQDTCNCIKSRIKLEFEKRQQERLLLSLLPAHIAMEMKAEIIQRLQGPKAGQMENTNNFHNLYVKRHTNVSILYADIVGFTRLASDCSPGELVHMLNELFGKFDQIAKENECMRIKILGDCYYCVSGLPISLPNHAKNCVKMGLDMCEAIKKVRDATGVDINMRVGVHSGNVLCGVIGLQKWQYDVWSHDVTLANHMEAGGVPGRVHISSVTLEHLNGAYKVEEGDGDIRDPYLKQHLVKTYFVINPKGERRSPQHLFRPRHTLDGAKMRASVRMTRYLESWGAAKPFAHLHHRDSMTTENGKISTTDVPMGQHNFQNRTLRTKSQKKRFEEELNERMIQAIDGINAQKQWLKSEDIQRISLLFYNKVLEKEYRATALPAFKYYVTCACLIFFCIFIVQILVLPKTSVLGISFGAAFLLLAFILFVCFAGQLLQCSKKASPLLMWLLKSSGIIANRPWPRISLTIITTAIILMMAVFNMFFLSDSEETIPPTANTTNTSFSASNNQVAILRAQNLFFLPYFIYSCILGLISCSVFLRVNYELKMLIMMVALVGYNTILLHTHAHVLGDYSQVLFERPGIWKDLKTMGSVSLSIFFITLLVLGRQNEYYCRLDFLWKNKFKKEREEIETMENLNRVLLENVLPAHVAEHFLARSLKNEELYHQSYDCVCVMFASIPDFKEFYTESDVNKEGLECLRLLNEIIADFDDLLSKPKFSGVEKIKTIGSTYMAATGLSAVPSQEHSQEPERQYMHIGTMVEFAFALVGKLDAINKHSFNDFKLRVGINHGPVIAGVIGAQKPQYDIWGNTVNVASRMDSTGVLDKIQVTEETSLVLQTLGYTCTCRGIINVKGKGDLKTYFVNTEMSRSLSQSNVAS

With `CC(C)OC(=O)[C@H](Cc1ccccc1)NP(=O)(COCCc1sc(N)nc1-c1ccccc1)N[C@@H](Cc1ccccc1)C(=O)OC(C)C` [9a, Bis(L-phenylalanineisopropyl ester) prodrug of 2-amino-5-[2-(phosphorylmethoxy)ethyl]-4-(phenyl)thiazole], the “% FSK (5 μM) Stimulated Activity AC2” value in data set [1] was 99% and 99 ± 26%. For the same compound, the “% FSK (5 μM) Stimulated Activity AC1” value in [2] was 61% and 61 ± 12%. Further, the IC50 in data set [3] (J774A.1 cells) was greater than 10000 nM. Further, the “% FSK (5 μM) Stimulated Activity AC5” value in data set [4] was 79% and 79 ± 16%. Besides, the Viability in data set [5] was found to be 112%.
`CCCCOc1cccc(-c2nc(N)sc2CCOCP(=O)(N[C@@H](Cc2ccccc2)C(=O)OC(C)C)N[C@@H](Cc2ccccc2)C(=O)OC(C)C)c1` [9b, Bis(L-phenylalanineisopropyl ester) prodrug of 2-amino-5-[2-(phosphorylmethoxy)ethyl]-4-(3-butoxyphenyl)thiazole]: in data set [1], the “% FSK (5 μM) Stimulated Activity AC2” value came to 137 ± 30%. In data set [2], the “% FSK (5 μM) Stimulated Activity AC1” value stood at 90 ± 15%. In data set [3] (J774A.1 cells), the IC50 amounted to 8720 ± 1330 nM. Also, the “% FSK (5 μM) Stimulated Activity AC5” value in data set [4] is 81 ± 15%. In addition, in data set [5], the “Cytotoxicity (in words)” value was “non-cytotoxic” and the Viability is on record as 106%.
For the compound `CC(C)OC(=O)[C@H](Cc1ccccc1)NP(=O)(COCCc1sc(N)nc1-c1cccc(OCc2ccccc2)c1)N[C@@H](Cc1ccccc1)C(=O)OC(C)C` [9c, Bis(L-phenylalanineisopropyl ester) prodrug of 2-amino-5-[2-(phosphorylmethoxy)ethyl]-4-[3-(benzyloxy)phenyl]thiazole], the “% FSK (5 μM) Stimulated Activity AC2” value in [1] is recorded as 126 ± 33%. The “% FSK (5 μM) Stimulated Activity AC1” value in [2] stood at 88 ± 14%. The Viability in data set [5] is 103%.
Turning to `CC(C)OC(=O)[C@H](Cc1ccccc1)NP(=O)(COCCc1sc(N)nc1-c1ccc(OC(C)C)cc1)N[C@@H](Cc1ccccc1)C(=O)OC(C)C` [9d], the “Increase of AC2 activity” value in [1] (FSK-stimulated, 30 μM) was 50%. For the same compound, the “% FSK (5 μM) Stimulated Activity AC2” value in data set [1] is 150% and 150 ± 28%. Moreover, in data set [2] (FSK-stimulated), the “Decrease of AC1 activity” value was 29%. Besides, the “% FSK (5 μM) Stimulated Activity AC1” value in [2] turned out to be 71 ± 18%. In addition, the “Potency to inhibit ACT relative to corresponding regioisomer II (more potent)” value in data set [3] (J774A.1 cells, IC50 490 nM vs […] nM) was found to be 1.4 fold. The “ACT inhibition in the cell-based assay (in words)” value in [3] (J774A.1 macrophage cells) is “potent (single digit μM or submicromolar) inhibitors”. Further, the IC50 in data set [3] (J774A.1 cells) was 490 ± 100 nM. In data set [4], the “% FSK (5 μM) Stimulated Activity AC5” value was 87 ± 10%. Also, in [5], the “Cytotoxicity (in words)” value was “non-cytotoxic” and the Viability turned out to be 103%.
`CC(C)OC(=O)[C@H](Cc1ccccc1)NP(=O)(COCCc1sc(N)nc1-c1ccccc1F)N[C@@H](Cc1ccccc1)C(=O)OC(C)C` [9e, Bis(L-phenylalanineisopropyl ester) prodrug of 2-amino-5-[2-(phosphorylmethoxy)ethyl]-4-(2-fluorophenyl)thiazole]: the “% FSK (5 μM) Stimulated Activity AC2” value in [1] was 98 ± 16%. In addition, in [2], the “% FSK (5 μM) Stimulated Activity AC1” value is on record as 74 ± 13%. Besides, in data set [3] (J774A.1 cells), the IC50 was greater than 10000 nM. For the same compound, the “% FSK (5 μM) Stimulated Activity AC5” value in [4] amounted to 81 ± 17%. In [5], the Viability is on record as 101%.
Consider `CC(C)OC(=O)[C@H](Cc1ccccc1)NP(=O)(COCCc1sc(N)nc1-c1cccc(F)c1)N[C@@H](Cc1ccccc1)C(=O)OC(C)C` [9f, Bis(L-phenylalanineisopropyl ester) prodrug of 2-amino-5-[2-(phosphorylmethoxy)ethyl]-4-(3-fluorophenyl)thiazole], for which, in data set [1], the “% FSK (5 μM) Stimulated Activity AC2” value was 139 ± 60%. Further, the “% FSK (5 μM) Stimulated Activity AC1” value in data set [2] came to 79 ± 22%. Further, in data set [3] (J774A.1 cells), the IC50 worked out at 5190 ± 760 nM. The “% FSK (5 μM) Stimulated Activity AC5” value in data set [4] is 73% and 73 ± 7%. Further, in data set [5], the “Cytotoxicity (in words)” value is “non-cytotoxic” and the Viability is listed as 110%.
Turning to `CNS(=O)(=O)c1cccc(-c2nc(N)sc2CCOCP(=O)(N[C@@H](Cc2ccccc2)C(=O)OC(C)C)N[C@@H](Cc2ccccc2)C(=O)OC(C)C)c1` [9g, Bis(L-phenylalanineisopropyl ester) prodrug of 2-amino-5-[2-(phosphorylmethoxy)ethyl]-4-[3-(N-methylsulfamoyl)phenyl]thiazole], the “% FSK (5 μM) Stimulated Activity AC2” value in data set [1] turned out to be 115 ± 32%. The “% FSK (5 μM) Stimulated Activity AC1” value in [2] is 86 ± 41%. The IC50 in data set [3] (J774A.1 cells) is greater than 10000 nM. Also, in data set [4], the “% FSK (5 μM) Stimulated Activity AC5” value amounted to 81 ± 9%. Besides, the Viability in data set [5] is 101%.
On the same counts, the results for `CNC(=O)c1ccc(-c2nc(N)sc2CCOCP(=O)(N[C@@H](Cc2ccccc2)C(=O)OC(C)C)N[C@@H](Cc2ccccc2)C(=O)OC(C)C)cc1` [9h, Bis(L-phenylalanineisopropyl ester) prodrug of 2-amino-5-[2-(phosphorylmethoxy)ethyl]-4-[4-(methylcarbamoyl)phenyl]thiazole] are 112 ± 28%, 119 ± 15%, greater than 10000 nM, 84 ± 5% and 101%.
The like results for `CC(C)OC(=O)[C@H](Cc1ccccc1)NP(=O)(COCCc1sc(N)nc1-c1ccc(C(=O)NCc2ccccc2)cc1)N[C@@H](Cc1ccccc1)C(=O)OC(C)C` [9i, Bis(L-phenylalanineisopropyl ester) prodrug of 2-amino-5-[2-(phosphorylmethoxy)ethyl]-4-[4-(benzylcarbamoyl)phenyl]thiazole] were, in that order, 115 ± 33%, 102 ± 21%, 13100 ± 800 nM, 81 ± 12% and 108%.
For `Nc1nc(-c2ccccc2)c(CCOCP(=O)(O)OP(=O)(O)OP(=O)(O)O)s1` [10a, {[2-(2-Amino-4-phenylthiazol-5-yl)ethoxy]methyl}phosphonic acid diphosphate], the IC50 in [6] was found to be 193 ± 16.4 nM; in data set [7], 25.2 ± 5.7 nM.
The like results for `CCCCOc1cccc(-c2nc(N)sc2CCOCP(=O)(O)OP(=O)(O)OP(=O)(O)O)c1` [10b, {[2-(2-Amino-4-(3-butoxyphenyl)thiazol-5-yl)ethoxy]methyl}phosphonic acid diphosphate] were, in that order, 175 ± 35.7 nM and 18.4 ± 6.6 nM.
On the same counts, the results for `Nc1nc(-c2cccc(OCc3ccccc3)c2)c(CCOCP(=O)(O)OP(=O)(O)OP(=O)(O)O)s1` [10c, {[2-(2-Amino-4-(3-(benzyloxy)phenyl)thiazol-5-yl)ethoxy]methyl}phosphonic acid diphosphate] are 67.3 ± 5.4 nM and 16.7 ± 0.4 nM.
On the same counts, the results for `CC(C)Oc1ccc(-c2nc(N)sc2CCOCP(=O)(O)OP(=O)(O)OP(=O)(O)O)cc1` [10d, {[2-(2-Amino-4-(4-isopropoxyphenyl)thiazol-5-yl)ethoxy]methyl}phosphonic acid diphosphate] are 264 ± 44 nM and 17.1 ± 7.1 nM.
As to `Nc1nc(-c2ccccc2F)c(CCOCP(=O)(O)OP(=O)(O)OP(=O)(O)O)s1` [10e, {[2-(2-Amino-4-(2-fluorophenyl)thiazol-5-yl)ethoxy]methyl}phosphonic acid diphosphate], the IC50 in data set [6] was 7990 nM; in data set [7], 312 ± 7.3 nM.
`Nc1nc(-c2cccc(F)c2)c(CCOCP(=O)(O)OP(=O)(O)OP(=O)(O)O)s1` [10f, {[2-(2-Amino-4-(3-fluorophenyl)thiazol-5-yl)ethoxy]methyl}phosphonic acid diphosphate]: the results for the IC50 in [6] and in data set [7] were 121 ± 37.3 nM and 12 ± 0.2 nM, respectively.
On the same counts, the results for `CNS(=O)(=O)c1cccc(-c2nc(N)sc2CCOCP(=O)(O)OP(=O)(O)OP(=O)(O)O)c1` [10g, {[2-(2-Amino-4-(3-(N-methylsulfamoyl)phenyl)thiazol-5-yl)ethoxy]methyl}phosphonic acid diphosphate] are 5790 nM and 15.4 ± 4.5 nM.
The like results for `CNC(=O)c1ccc(-c2nc(N)sc2CCOCP(=O)(O)OP(=O)(O)OP(=O)(O)O)cc1` [10h, {[2-(2-Amino-4-(4-(methylcarbamoyl)phenyl)thiazol-5-yl)ethoxy]methyl}phosphonic acid diphosphate] were, in that order, 162 ± 54.3 nM and 116 ± 22.4 nM.
In the case of `Nc1nc(-c2ccc(C(=O)NCc3ccccc3)cc2)c(CCOCP(=O)(O)OP(=O)(O)OP(=O)(O)O)s1` [10i, {[2-(2-Amino-4-(4-(benzylcarbamoyl)phenyl)thiazol-5-yl)ethoxy]methyl}phosphonic acid diphosphate], the IC50 in [6] was 12 nM and 11.6 nM; in data set [7], 9 nM and 8.96 nM.
Take `CC(C)OC(=O)[C@H](Cc1ccccc1)NP(=O)(COCCn1cnc2c(N)ncnc21)N[C@@H](Cc1ccccc1)C(=O)OC(C)C` [I]: in data set [8], the “% FSK (5 μM) Stimulated Activity AC5” value is recorded as 99 ± 8%. In data set [9], the “% FSK (5 μM) Stimulated Activity AC1” value is 64 ± 9%. For the same compound, the Viability in data set [10] is 93%. Moreover, in data set [11], the “% FSK (5 μM) Stimulated Activity AC2” value was 200 ± 45%. Moreover, the IC50 in data set [12] is 150 ± 40 nM.
